{"source": "patent US9943529B2", "about": "“Methods for reducing cellular proliferation and treating certain diseases” (BRIGHAM YOUNG UNIVERSITY, priority 2013, dated 2018)", "key": {"[1]": {"system": "UACC-62", "conditions": "48 hours, five 10-fold dilutions starting from 100 μM"}, "[2]": {"system": "OVCAR-3", "conditions": "48 hours, five 10-fold dilutions starting from 100 μM"}, "[3]": {"system": "EKVX", "conditions": "48 hours, five 10-fold dilutions starting from 100 μM"}, "[4]": {"system": "IGROV1", "conditions": "48 hours, five 10-fold dilutions starting from 100 μM"}, "[5]": {"system": "PC-3", "experiment": "cells", "conditions": "Homo sapiens, PC-3, 48 h"}, "[6]": {"system": "NCI-ADR-RES", "experiment": "cells", "conditions": "Homo sapiens, 48 h"}, "[7]": {"system": "KM12", "experiment": "NCI screen antiproliferative activity, sulforhodamine B, Colon Cancer panel", "type": "cell-based, human", "conditions": "48 hours, five 10-fold dilutions starting from 100 μM"}, "[8]": {"system": "RPMI-8226", "experiment": "NCI screen antiproliferative activity, sulforhodamine B, Leukemia panel", "type": "cell-based, human", "conditions": "48 hours, five 10-fold dilutions starting from 100 μM"}, "[9]": {"system": "M14", "experiment": "cells", "conditions": "Homo sapiens, M14, 48 h"}, "[10]": {"system": "CAKI-1", "conditions": "48 hours, five 10-fold dilutions starting from 100 μM"}, "[11]": {"system": "NCI-H522", "experiment": "cells", "conditions": "Homo sapiens, NCI-H522, 48 h"}, "[12]": {"system": "SF-539", "conditions": "48 hours, five 10-fold dilutions starting from 100 μM"}, "[13]": {"system": "UACC-62", "experiment": "cells", "conditions": "Homo sapiens, UACC-62, 48 h"}, "[14]": {"system": "OVCAR-8", "conditions": "48 hours, five 10-fold dilutions starting from 100 μM"}, "[15]": {"system": "MCF7", "experiment": "cells", "conditions": "Homo sapiens, MCF7, 48 h"}, "[16]": {"system": "HCT-15", "conditions": "48 hours, five 10-fold dilutions starting from 100 μM"}, "[17]": {"system": "NCI-H322M", "experiment": "cells", "conditions": "Homo sapiens, 48 h"}, "[18]": {"system": "SF-539", "experiment": "cells", "conditions": "Homo sapiens, SF-539, 48 h"}, "[19]": {"system": "BT-549", "experiment": "cells", "conditions": "Homo sapiens, BT-549, 48 h"}, "[20]": {"system": "HCT-116", "experiment": "cells", "conditions": "Homo sapiens, HCT-116, 48 h"}, "[21]": {"system": "SK-OV-3", "conditions": "48 hours, five 10-fold dilutions starting from 100 μM"}, "[22]": {"system": "SK-MEL-28", "conditions": "48 hours, five 10-fold dilutions starting from 100 μM"}, "[23]": {"system": "SK-MEL-5", "experiment": "NCI screen antiproliferative activity, sulforhodamine B, Melanoma panel", "type": "cell-based, human", "conditions": "48 hours, five 10-fold dilutions starting from 100 μM"}, "[24]": {"system": "NCI-H23", "experiment": "cells", "conditions": "Homo sapiens, NCI-H23, 48 h"}, "[25]": {"system": "A549/ATCC", "experiment": "cells", "conditions": "Homo sapiens, A549, 48 h"}, "[26]": {"system": "TK-10", "conditions": "48 hours, five 10-fold dilutions starting from 100 μM"}, "[27]": {"system": "TK-10", "experiment": "cells", "conditions": "Homo sapiens, TK-10, 48 h"}, "[28]": {"system": "NCI-ADR-RES", "conditions": "48 hours, five 10-fold dilutions starting from 100 μM"}, "[29]": {"system": "HT29", "conditions": "48 hours, five 10-fold dilutions starting from 100 μM"}, "[30]": {"system": "RXF 393", "experiment": "cells", "conditions": "Homo sapiens, RXF 393, 48 h"}, "[31]": {"system": "SF-295", "experiment": "cells", "conditions": "Homo sapiens, SF-295, 48 h"}, "[32]": {"system": "MDA-MB-435", "experiment": "cells", "conditions": "Homo sapiens, MDA-MB-435, 48 h"}, "[33]": {"system": "HOP-92", "conditions": "48 hours, five 10-fold dilutions starting from 100 μM"}, "[34]": {"system": "SNB-19", "experiment": "cells", "conditions": "Homo sapiens, SNB-19, 48 h"}, "[35]": {"system": "HOP-92", "experiment": "cells", "conditions": "Homo sapiens, HOP-92, 48 h"}, "[36]": {"system": "SK-MEL-2", "conditions": "48 hours, five 10-fold dilutions starting from 100 μM"}, "[37]": {"system": "MDA-MB-231/ATCC", "conditions": "48 hours, five 10-fold dilutions starting from 100 μM"}, "[38]": {"system": "ACHN", "experiment": "cells", "conditions": "Homo sapiens, 48 h"}, "[39]": {"system": "SK-MEL-2", "experiment": "cells", "conditions": "Homo sapiens, SK-MEL-2, 48 h"}, "[40]": {"system": "SNB-19", "conditions": "48 hours, five 10-fold dilutions starting from 100 μM"}, "[41]": {"system": "SF-268", "experiment": "cells", "conditions": "Homo sapiens, SF-268, 48 h"}, "[42]": {"system": "SR", "experiment": "NCI screen antiproliferative activity, sulforhodamine B, Leukemia panel", "type": "cell-based, human", "conditions": "48 hours, five 10-fold dilutions starting from 100 μM"}, "[43]": {"system": "NCI-H226", "experiment": "cells", "conditions": "Homo sapiens, NCI-H226, 48 h"}}, "data": [{"smiles": "CCCCCCCCNCCC[C@@H](C)[C@H]1CC[C@H]2[C@@H]3[C@H](OCCCN)C[C@@H]4C[C@H](OCCCN)CC[C@]4(C)[C@H]3C[C@H](OCCCN)[C@]12C", "note": "[CSA-13]", "values": [{"measurement": "TGI", "setting": "[1]", "result": 2.29, "unit": "µM"}, {"measurement": "TGI", "setting": "[2]", "result": 14.8, "unit": "µM"}, {"measurement": "TGI", "setting": "[3]", "result": 3.38, "unit": "µM"}, {"measurement": "TGI", "setting": "[4]", "result": 3.54, "unit": "µM"}, {"measurement": "GI50", "setting": "[5]", "result": 3.74, "unit": "µM"}, {"measurement": "CC50", "setting": "[5]; read-out: LC50", "result": "> 100", "unit": "µM"}, {"measurement": "GI50", "setting": "[6]", "result": 1.83, "unit": "µM"}, {"measurement": "CC50", "setting": "[6]; read-out: LC50", "result": 36.5, "unit": "µM"}, {"measurement": "TGI", "setting": "[7]", "result": 2.76, "unit": "µM"}, {"measurement": "GI50", "setting": "[7]; Homo sapiens", "result": 0.586, "unit": "µM"}, {"measurement": "TGI", "setting": "[8]", "result": 0.911, "unit": "µM"}, {"measurement": "GI50", "setting": "[8]; Homo sapiens", "result": 0.266, "unit": "µM"}, {"measurement": "GI50", "setting": "[9]", "result": 1.18, "unit": "µM"}, {"measurement": "CC50", "setting": "[9]; read-out: LC50", "result": 12.6, "unit": "µM"}, {"measurement": "TGI", "setting": "[10]", "result": 10.6, "unit": "µM"}, {"measurement": "GI50", "setting": "[11]", "result": 2.59, "unit": "µM"}, {"measurement": "CC50", "setting": "[11]; read-out: LC50", "result": "> 100", "unit": "µM"}, {"measurement": "TGI", "setting": "[12]", "result": 1.41, "unit": "µM"}, {"measurement": "GI50", "setting": "[13]", "result": 0.482, "unit": "µM"}, {"measurement": "CC50", "setting": "[13]; read-out: LC50", "result": 9.43, "unit": "µM"}, {"measurement": "TGI", "setting": "[14]", "result": 4.01, "unit": "µM"}, {"measurement": "GI50", "setting": "[15]", "result": 1.63, "unit": "µM"}, {"measurement": "CC50", "setting": "[15]; read-out: LC50", "result": 5.85, "unit": "µM"}, {"measurement": "TGI", "setting": "[16]", "result": 14.8, "unit": "µM"}, {"measurement": "GI50", "setting": "[17]", "result": 1.36, "unit": "µM"}, {"measurement": "CC50", "setting": "[17]; read-out: LC50", "result": "> 100", "unit": "µM"}, {"measurement": "GI50", "setting": "[18]", "result": 0.318, "unit": "µM"}, {"measurement": "CC50", "setting": "[18]; read-out: LC50", "result": 4.89, "unit": "µM"}, {"measurement": "GI50", "setting": "[19]", "result": 1.07, "unit": "µM"}, {"measurement": "CC50", "setting": "[19]; read-out: LC50", "result": "> 100", "unit": "µM"}, {"measurement": "GI50", "setting": "[20]", "result": 0.87, "unit": "µM"}, {"measurement": "CC50", "setting": "[20]; read-out: LC50", "result": 7.25, "unit": "µM"}, {"measurement": "TGI", "setting": "[21]", "result": 16.3, "unit": "µM"}, {"measurement": "TGI", "setting": "[22]", "result": 1.27, "unit": "µM"}, {"measurement": "TGI", "setting": "[23]", "result": 1.92, "unit": "µM"}, {"measurement": "GI50", "setting": "[23]; Homo sapiens", "result": 0.504, "unit": "µM"}, {"measurement": "GI50", "setting": "[24]", "result": 1.24, "unit": "µM"}, {"measurement": "CC50", "setting": "[24]; read-out: LC50", "result": 7.87, "unit": "µM"}, {"measurement": "GI50", "setting": "[25]", "result": 2.01, "unit": "µM"}, {"measurement": "CC50", "setting": "[25]; read-out: LC50", "result": 45.9, "unit": "µM"}, {"measurement": "TGI", "setting": "[26]", "result": 4.70, "unit": "µM"}, {"measurement": "GI50", "setting": "[27]", "result": 0.974, "unit": "µM"}, {"measurement": "CC50", "setting": "[27]; read-out: LC50", "result": "> 100", "unit": "µM"}, {"measurement": "TGI", "setting": "[28]", "result": 5.33, "unit": "µM"}, {"measurement": "TGI", "setting": "[29]", "result": 5.31, "unit": "µM"}, {"measurement": "GI50", "setting": "[30]", "result": 1.54, "unit": "µM"}, {"measurement": "CC50", "setting": "[30]; read-out: LC50", "result": "> 100", "unit": "µM"}, {"measurement": "GI50", "setting": "[31]", "result": 0.496, "unit": "µM"}, {"measurement": "CC50", "setting": "[31]; read-out: LC50", "result": 24, "unit": "µM"}, {"measurement": "GI50", "setting": "[32]", "result": 0.318, "unit": "µM"}, {"measurement": "CC50", "setting": "[32]; read-out: LC50", "result": 5.68, "unit": "µM"}, {"measurement": "TGI", "setting": "[33]", "result": 21.2, "unit": "µM"}, {"measurement": "GI50", "setting": "[34]", "result": 1.49, "unit": "µM"}, {"measurement": "CC50", "setting": "[34]; read-out: LC50", "result": 89.3, "unit": "µM"}, {"measurement": "GI50", "setting": "[35]", "result": 0.408, "unit": "µM"}, {"measurement": "CC50", "setting": "[35]; read-out: LC50", "result": "> 100", "unit": "µM"}, {"measurement": "TGI", "setting": "[36]", "result": ">100", "unit": "µM"}, {"measurement": "TGI", "setting": "[37]", "result": 4.08, "unit": "µM"}, {"measurement": "GI50", "setting": "[38]", "result": 1.48, "unit": "µM"}, {"measurement": "CC50", "setting": "[38]; read-out: LC50", "result": 9.17, "unit": "µM"}, {"measurement": "GI50", "setting": "[39]", "result": 4.51, "unit": "µM"}, {"measurement": "CC50", "setting": "[39]; read-out: LC50", "result": "> 100", "unit": "µM"}, {"measurement": "TGI", "setting": "[40]", "result": 5.05, "unit": "µM"}, {"measurement": "GI50", "setting": "[41]", "result": 1.5, "unit": "µM"}, {"measurement": "CC50", "setting": "[41]; read-out: LC50", "result": 9.14, "unit": "µM"}, {"measurement": "TGI", "setting": "[42]", "result": 2.29, "unit": "µM"}, {"measurement": "GI50", "setting": "[42]; Homo sapiens", "result": 0.272, "unit": "µM"}, {"measurement": "GI50", "setting": "[43]", "result": 2.22, "unit": "µM"}, {"measurement": "CC50", "setting": "[43]; read-out: LC50", "result": 66.8, "unit": "µM"}]}]}
